# PubChem BioAssay (NCI)
# Values joined by “and” are separate entries in the source; they are usually repeats but may differ in a detail not shown here. Identical values can stand only once.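 1) Cells in 96-well plates. 2) Compound, 48 h, 5 concentrations. 3) Linear interpolation between surrounding doses. 4) Unreached endpoint = highest concentration. GI50 = concentration required for 50% inhibition of growth. Definition used: TGI = concentration required for complete inhibition of growth.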
# Assays:
# Test in all cases: growth of human tumour cells (NCI), 48 h
# A549 NSCLC = tested on: A549 NSCLC
# CAKI-1 renal = tested on: CAKI-1 renal
# CCRF-CEM leukemia = tested on: CCRF-CEM leukemia
# COLO 205 colon = tested on: COLO 205 colon
# K-562 leukemia = tested on: K-562 leukemia
# KM12 colon = tested on: KM12 colon
# NCI-H226 lung = tested on: NCI-H226 lung
# NCI-H460 lung = tested on: NCI-H460 lung
# SF-539 CNS = tested on: SF-539 CNS
# SK-OV-3 ovarian = tested on: SK-OV-3 ovarian
Compound,GI50 (A549 NSCLC),TGI (A549 NSCLC),GI50 (CAKI-1 renal) [µM],TGI (CAKI-1 renal),GI50 (CCRF-CEM leukemia),TGI (CCRF-CEM leukemia) [µM],GI50 (COLO 205 colon),TGI (COLO 205 colon),GI50 (K-562 leukemia),TGI (K-562 leukemia) [µM],GI50 (KM12 colon),TGI (KM12 colon),GI50 (NCI-H226 lung),TGI (NCI-H226 lung),GI50 (NCI-H460 lung),TGI (NCI-H460 lung),GI50 (SF-539 CNS) [µM],TGI (SF-539 CNS),GI50 (SK-OV-3 ovarian),TGI (SK-OV-3 ovarian)
CN(C)N=Nc1nn(C(=O)Nc2ccc(Cc3ccccc3)cc2)c2ccccc12,3.9 µM,> 100 µM,1.12,> 100 µM,4.42 µM,> 100,0.77 µM,2.45 µM,0.0373 µM,> 100,0.312 µM,> 100 µM,> 100 µM,> 100 µM,0.111 µM,> 100 µM,1.46,> 23.7 µM,> 100 µM,> 100 µM
Nc1nc(Cl)nc2c1ncn2[C@@H]1O[C@H](COS(N)(=O)=O)[C@@H](O)[C@H]1O,0.0259 µM and 0.0263 µM,0.0829 µM and 0.0823 µM,0.0208,0.0506 µM,0.0159 µM and 0.027 µM,0.101,0.0202 µM and 0.0239 µM,0.0489 µM and 0.0543 µM,0.017 µM and 0.0199 µM,0.118,0.0232 µM and 0.0321 µM,0.0707 µM and 0.166 µM,0.0174 µM and 0.0167 µM,0.0401 µM and 0.0463 µM,0.0306 µM and 0.0305 µM,0.104 µM and 0.108 µM,0.0217,0.0563 µM and 0.0533 µM,0.0248 µM and 0.026 µM,0.0739 µM and 0.0666 µM
O=C1/C(=C\c2ccccc2)c2ccccc2N1/N=C\c1ccccc1,–,> 100 µM,–,> 100 µM,–,> 100,–,> 100 µM,–,> 100,–,> 100 µM,–,> 100 µM,–,> 100 µM,–,> 100 µM,–,> 100 µM
O=c1[nH]nc(-c2ccccc2)c2c(-c3ccccc3)onc12,0.529 µM,> 100 µM,0.728,> 100 µM,3.69 µM,> 100,0.505 µM,9.89 µM,0.385 µM,> 100,0.389 µM,> 39.6 µM,> 21 µM,> 100 µM,0.383 µM,> 62.6 µM,0.351,1.79 µM,0.981 µM,53.6 µM
COc1cc(-c2oc3c(OC)c(O)cc(O)c3c(=O)c2OC)ccc1O,–,> 100 µM,–,51.5 µM,–,24.9,–,> 100 µM,–,> 100,–,> 100 µM,–,97.2 µM,–,> 93.5 µM,–,> 50.2 µM,–,9.15 µM
CNC(=O)c1cncc(/C=C/c2c(Cl)cccc2Cl)c1,> 25 µM,> 25 µM,13.6,> 25 µM,> 25 µM,> 25,> 25 µM,> 25 µM,8.14 µM,> 25,> 22.4 µM,> 25 µM,> 24.1 µM,> 25 µM,> 25 µM,> 25 µM,9.43,> 25 µM,> 25 µM,> 25 µM
Cc1ccc(Nc2nc(C)c(C(/C=C/c3ccc4c(c3)OCO4)=N/Nc3ccc([N+](=O)[O-])cc3[N+](=O)[O-])s2)c([N+](=O)[O-])c1,–,> 100 µM,–,> 100 µM,–,> 100,–,> 100 µM,–,> 100,–,> 100 µM,–,90.1 µM,–,> 100 µM,–,> 100 µM,–,> 100 µM
O=C1COCCN1c1ccc(NCc2cn(C(=O)c3ccc(Cl)cc3)c3ccccc23)cc1,3.36 µM,> 100 µM,0.0531,1.8 µM,5.62 µM,> 100,3.28 µM,21.8 µM,1.84 µM,17,13.7 µM,> 100 µM,0.159 µM,0.543 µM,0.268 µM,12.7 µM,8.49,26.2 µM,2.27 µM,92.1 µM
Cc1cc(Cl)ccc1Nc1nc(C(F)(F)F)ccc1C(=O)Nc1cccc(C(F)(F)F)c1,3.4 µM,18 µM,3.61,17.8 µM,3.41 µM,14.7,2.52 µM,6.13 µM,2.59 µM,11.2,2.1 µM,12.1 µM,4.05 µM,17.6 µM,3.07 µM,10.6 µM,3.27,14.7 µM,2.44 µM,10.8 µM
O=C1C=C(OCCCl)C(=O)c2c(O)ccc(O)c21,1.63 µM,0.686 µM and 3.41 µM,1.75,3.88 µM and 3.16 µM,1.32 µM,3.5,0.592 µM,0.338 µM and 1.92 µM,1.17 µM,3.11,6.4 µM,4.38 µM and 20.6 µM,–,5.07 µM and 4.64 µM,2.15 µM,2.05 µM and 4.67 µM,1.58,2.82 µM and 2.93 µM,25.2 µM,–
O=C(CC(=O)c1ccccc1)C(=O)NC12CC3CC(CC(C3)C1)C2,–,> 100 µM,–,> 100 µM,–,> 80.4,–,> 64.8 µM,–,> 100,–,> 100 µM,–,> 100 µM,–,> 56.9 µM,–,> 100 µM,–,> 100 µM
C=C1C(=O)O[C@H]2[C@H]1CC/C(CNC(=O)/C=C/c1ccc(Cl)cc1Cl)=C\CC[C@@]1(C)O[C@@H]21,2.12 µM,5.46 µM,0.759,2.16 µM,0.304 µM,1.19,1.14 µM,2.95 µM,0.696 µM,4.16,1.62 µM,3.03 µM,2.33 µM,5.72 µM,1.76 µM,3.52 µM,1.53,3.17 µM,3.33 µM,13 µM
CN(CCCN(C)CCC1CCCCC1)CCC1CCCCC1,9.8 µM,24.1 µM,1.52,3.82 µM,3.03 µM,21.7,1.77 µM,3.27 µM,1.97 µM,7.02,2.04 µM,4.12 µM,2.57 µM,11.9 µM,2.65 µM,6.7 µM,1.7,3.53 µM,5.34 µM,17.1 µM
COc1ccc(OC)c(/C=N/N=C2\C(=O)Nc3c(Cl)cc(Cl)cc32)c1,–,> 100 µM,–,> 100 µM,–,> 100,–,> 100 µM,–,> 100,–,> 100 µM,–,> 100 µM,–,> 100 µM,–,> 100 µM,–,> 100 µM
COc1cc2nncc(SCc3ccc(Cl)c(Cl)c3)c2cc1OC,–,> 100 µM,–,> 100 µM,–,> 100,–,> 100 µM,–,> 100,–,> 100 µM,–,> 100 µM,–,> 100 µM,–,> 100 µM,–,> 100 µM
c1ccc(/C(=N\Nc2ccc3ccccc3n2)c2ccccn2)cc1,1.11 µM,> 36.2 µM,0.0927,3.95 µM,0.298 µM,1.47,0.407 µM,5.08 µM,0.649 µM,6.52,0.989 µM,13.5 µM,0.534 µM,5.16 µM,0.414 µM,11.3 µM,0.682,4.57 µM,0.612 µM,18 µM
CN(C)CC1=Nc2cccc3cccc(c23)N1,–,> 100 µM,–,38.6 µM,–,> 100,–,7.11 µM,–,62.3,–,59.3 µM,–,37.4 µM,–,> 100 µM,–,35.9 µM,–,> 100 µM
CCc1nc(N)nc(N)c1C#CC(C)c1cc(-c2ccnc(C)c2)c2oc(C)nc2c1 (stereo not drawn),< 0.01 µM,11.7 µM,< 0.0109,5.58 µM,< 0.01 µM,29.9,0.0246 µM,6.9 µM,< 0.01 µM,31.3,0.0201 µM,10.9 µM,0.913 µM,11.2 µM,< 0.01 µM,4.26 µM,< 0.01,2.4 µM,0.113 µM,8.53 µM
Clc1ccc(/C=C/c2nc(Cl)c(-c3ccc(Cl)cc3)c(Cl)n2)cc1,–,> 100 µM,–,> 100 µM,–,84.8,–,> 100 µM,–,> 100,–,> 100 µM,–,> 100 µM,–,> 100 µM,–,> 100 µM,–,> 100 µM
COC1OC(C(C)O)C2OC(C)(C)OC12 (stereo not drawn),–,> 100 µM,–,> 100 µM,–,> 100,–,> 100 µM,–,> 100,–,> 100 µM,–,> 100 µM,–,> 100 µM,–,> 100 µM,–,> 100 µM
NS(=O)(=O)c1ccc(N2N=C(c3cccs3)CC2c2ccccc2O)cc1 (stereo not drawn),1.16 µM,7.06 µM,1.47,8.19 µM,1.4 µM,> 33.3,0.577 µM,1.88 µM,1.24 µM,15.3,0.809 µM,1.94 µM,3.4 µM,17.4 µM,1.16 µM,4.24 µM,0.706,1.76 µM,1.18 µM,10.1 µM
CNc1ncc2cc(Oc3ccc(F)cc3F)c(=O)n(C)c2n1,> 25 µM,> 25 µM,> 25,> 25 µM,> 25 µM,> 25,> 25 µM,> 25 µM,> 25 µM,> 25,> 25 µM,> 25 µM,> 25 µM,> 25 µM,> 25 µM,> 25 µM,> 25,> 25 µM,> 25 µM,> 25 µM
Nc1ccc(C2=Nc3ccccc3SC(c3ccccc3O)C2)cc1 (stereo not drawn),–,> 100 µM,–,> 100 µM,–,32.5,–,> 100 µM,–,51.6,–,> 100 µM,–,> 100 µM,–,> 100 µM,–,> 100 µM,–,> 100 µM
CN(C)c1ncnc2c1ccn2C1OC(CO)C(O)C1O (stereo not drawn),13.6 µM,> 100 µM,1.58,> 39.8 µM,0.234 µM,1.76,18.8 µM,> 100 µM,1.4 µM,> 100,34.9 µM,> 100 µM,> 100 µM,> 100 µM,4.19 µM,> 100 µM,> 33.5,> 100 µM,0.884 µM,21.4 µM
Cc1ccc([N+](=O)[O-])c2c(NCCC[N+](C)(C)[O-])ccnc12,–,> 100 µM,–,> 100 µM,–,> 100,–,> 100 µM,–,> 100,–,> 100 µM,–,> 100 µM,–,80.1 µM,–,> 100 µM,–,> 100 µM
COC(=O)Nc1nc2ccc(S(=O)(=O)c3ccc(NC(=O)Nc4cc(C(F)(F)F)ccc4F)cc3)cc2[nH]1,> 25 µM,> 25 µM,> 25,> 25 µM,> 25 µM,> 25,> 25 µM,> 25 µM,> 25 µM,> 25,> 21.1 µM,> 25 µM,> 25 µM,> 25 µM,> 25 µM,> 25 µM,> 25,> 25 µM,> 25 µM,> 25 µM
Oc1ccc(O)c2c1C1(Cl)C(Cl)=C(Cl)C2(Cl)C1(Cl)Cl,5.89 µM,37.4 µM,2.44,8.31 µM,4.14 µM,> 100,11.6 µM,25.4 µM,2.94 µM,93,2.44 µM,7.62 µM,10.7 µM,41 µM,2.86 µM,8.94 µM,4.38,18.7 µM,7.41 µM,20.4 µM
Nc1cc(-c2ccccc2)n(C(=O)Nc2ccc(Oc3ccccc3)cc2)n1,27.8 µM,> 100 µM,28.9,77.2 µM,18.9 µM,93.3,> 100 µM,> 100 µM,> 100 µM,> 100,> 100 µM,> 100 µM,49.5 µM,> 100 µM,69 µM,> 100 µM,30.1,> 100 µM,68.9 µM,> 100 µM
O=C(O)C1CC2CC(=O)C1C2 (stereo not drawn),–,> 100 µM,–,> 100 µM,–,> 100,–,> 100 µM,–,> 100,–,> 100 µM,–,> 100 µM,–,> 100 µM,–,> 100 µM,–,> 100 µM
O=C1OC(OC/C(Br)=C(/Br)COC2OC(=O)C(Cl)=C2Cl)C(Cl)=C1Cl (stereo not drawn),–,48.9 µM,–,7.68 µM,–,4.93,–,10.4 µM,–,5.85,–,21.8 µM,–,> 70.7 µM,–,39.4 µM,–,36.7 µM,–,> 55.8 µM
